Assay results from ChEMBL document CHEMBL5715949, “Discovery of a selective irreversible BMX inhibitor for prostate cancer” (ACS Chem Biol, 2013).
Calls of active or inactive are those of the source. The rule behind the calls is not given here.

What was measured:
[1] = biological target: Serine/threonine-protein kinase 4 (Homo sapiens) (UniProt Q13043); assay: Inhibition of MST1 (unknown origin) assessed as remaining activity at 1 uM by Kinome scan method relative to control
[2] = biological target: Serine/threonine-protein kinase Nek2 (Homo sapiens) (UniProt P51955); assay: Inhibition of NEK2 (unknown origin) assessed as remaining activity at 1 uM by Kinome scan method relative to control
[3] = biological target: Platelet-derived growth factor receptor alpha (Homo sapiens) (UniProt P16234); assay: Inhibition of PDGFRalpha (unknown origin) assessed as remaining activity at 1 uM by Kinome scan method relative to control
[4] = biological target: Cyclin-dependent kinase 18 (Homo sapiens) (UniProt Q07002); assay: Inhibition of PCTK3 (unknown origin) assessed as remaining activity at 1 uM by Kinome scan method relative to control
[5] = biological target: Serine/threonine-protein kinase PAK 5 (Homo sapiens) (UniProt Q9P286); assay: Inhibition of PAK7 (unknown origin) assessed as remaining activity at 1 uM by Kinome scan method relative to control
[6] = test system: DU-145; assay: Antiproliferative activity against human DU-145 cells assessed growth inhibition incubated for 2 to 5 days by CellTiter-Glo assay; format: functional; conditions: time 2-5 day
[7] = test system: Tyrosine-protein kinase ABL1 (Homo sapiens), P00519 [H396P]; assay: Inhibition of ABL1 H396P mutant (unknown origin) assessed as remaining activity at 1 uM by Kinome scan method relative to control
[8] = biological target: RAC-alpha serine/threonine-protein kinase (Homo sapiens) (UniProt P31749); assay: Inhibition of AKT1 (unknown origin) assessed as remaining activity at 1 uM by Kinome scan method relative to control
[9] = biological target: 5'-AMP-activated protein kinase catalytic subunit alpha-2 (Homo sapiens) (UniProt P54646); assay: Inhibition of AMPK-alpha2 (unknown origin) assessed as remaining activity at 1 uM by Kinome scan method relative to control
[10] = biological target: Calcium/calmodulin-dependent protein kinase type II subunit alpha (Homo sapiens) (UniProt Q9UQM7); assay: Inhibition of CAMK2A (unknown origin) assessed as remaining activity at 1 uM by Kinome scan method relative to control
[11] = biological target: Macrophage colony-stimulating factor 1 receptor (Homo sapiens) (UniProt P07333); assay: Inhibition of CSF1R (unknown origin) assessed as remaining activity at 1 uM by Kinome scan method relative to control
[12] = biological target: Fibroblast growth factor receptor 2 (Homo sapiens) (UniProt P21802); assay: Inhibition of FGFR2 (unknown origin) assessed as remaining activity at 1 uM by Kinome scan method relative to control
[13] = biological target: Tyrosine-protein kinase Fgr (Homo sapiens) (UniProt P09769); assay: Inhibition of FGR (unknown origin) assessed as remaining activity at 1 uM by Kinome scan method relative to control
[14] = biological target: Tyrosine-protein kinase JAK1 (Homo sapiens) (UniProt P23458); assay: Inhibition of JAK1 JH1 domain (unknown origin) assessed as remaining activity at 1 uM by Kinome scan method relative to control
[15] = biological target: Tyrosine-protein kinase JAK1 (Homo sapiens) (UniProt P23458); assay: Inhibition of JAK1 JH2 domain (unknown origin) assessed as remaining activity at 1 uM by Kinome scan method relative to control
[16] = biological target: Mitogen-activated protein kinase 8 (Homo sapiens) (UniProt P45983); assay: Inhibition of JNK1 (unknown origin) assessed as remaining activity at 1 uM by Kinome scan method relative to control
[17] = biological target: Tyrosine-protein kinase Lyn (Homo sapiens) (UniProt P07948); assay: Inhibition of LYN (unknown origin) assessed as remaining activity at 1 uM by Kinome scan method relative to control
[18] = biological target: Mitogen-activated protein kinase kinase kinase 15 (Homo sapiens) (UniProt Q6ZN16); assay: Inhibition of MAP3K15 (unknown origin) assessed as remaining activity at 1 uM by Kinome scan method relative to control
[19] = biological target: MAP/microtubule affinity-regulating kinase 3 (Homo sapiens) (UniProt P27448); assay: Inhibition of MARK3 (unknown origin) assessed as remaining activity at 1 uM by Kinome scan method relative to control
[20] = biological target: Phosphatidylinositol 4,5-bisphosphate 3-kinase catalytic subunit beta isoform (Homo sapiens) (UniProt P42338); assay: Inhibition of PIK3CB (unknown origin) assessed as remaining activity at 1 uM by Kinome scan method relative to control
[21] = biological target: Serine/threonine-protein kinase D2 (Homo sapiens) (UniProt Q9BZL6); assay: Inhibition of PRKD2 (unknown origin) assessed as remaining activity at 1 uM by Kinome scan method relative to control
[22] = biological target: cGMP-dependent protein kinase 1 (Homo sapiens) (UniProt Q13976); assay: Inhibition of PRKG1 (unknown origin) assessed as remaining activity at 1 uM by Kinome scan method relative to control
[23] = biological target: cAMP-dependent protein kinase catalytic subunit PRKX (Homo sapiens) (UniProt P51817); assay: Inhibition of PRKX (unknown origin) assessed as remaining activity at 1 uM by Kinome scan method relative to control
[24] = biological target: Proto-oncogene tyrosine-protein kinase receptor Ret (Homo sapiens) (UniProt P07949); assay: Inhibition of RET (unknown origin) assessed as remaining activity at 1 uM by Kinome scan method relative to control
[25] = biological target: Rho-associated protein kinase 1 (Homo sapiens) (UniProt Q13464); assay: Inhibition of ROCK1 (unknown origin) assessed as remaining activity at 1 uM by Kinome scan method relative to control
[26] = biological target: Ribosomal protein S6 kinase alpha-4 (Homo sapiens) (UniProt O75676); assay: Inhibition of N-terminal kinase domain RPS6KA4 (unknown origin) assessed as remaining activity at 1 uM by Kinome scan method relative to control
[27] = biological target: Ribosomal protein S6 kinase alpha-6 (Homo sapiens) (UniProt Q9UK32); assay: Inhibition of C-terminal kinase domain RSK4 (unknown origin) assessed as remaining activity at 1 uM by Kinome scan method relative to control
[28] = test system: RV-1; assay: Antiproliferative activity against human RV-1 cells assessed as reduction in cell viability at 500 to 2500 nM incubated for 5 days in presence of gefitinib by CellTiter-Glo assay; format: functional, cell-based; conditions: dose 500-2500 nM, time 5.0 day
[29] = test system: RV-1; assay: Antiproliferative activity against human RV-1 cells assessed as reduction in cell viability at 500 to 2500 nM incubated for 5 days in presence of MK2206 by CellTiter-Glo assay; format: functional, cell-based; conditions: dose 500-2500 nM, time 5.0 day
[30] = test system: RV-1; assay: Induction of apoptosis in human RV-1 cells at 2.5 uM incubated for 5 days in presence of […] by propidium iodide staining based flow cytometric analysis; format: functional, cell-based; conditions: time 5.0 day
[31] = Induction of cell cycle arrest in human RV-1 cells assessed as accumulation of cells at G1 phase at 2.5 uM incubated for 5 days by propidium iodide staining based flow cytometric analysis (reference value: 59.7 %); format: functional; conditions: time 5 day
[32] = Inhibition of PI3K/AKT/mTOR signalling pathway in human RV-1 cells assessed as decrease in S6K phosphorylation at T389 residue at 2.5 uM incubated for 4 hrs by immunoblot analysis; format: cell-based

Sequence of Tyrosine-protein kinase JAK1 (Homo sapiens) (P23458 whole entry, the tested form may be a part): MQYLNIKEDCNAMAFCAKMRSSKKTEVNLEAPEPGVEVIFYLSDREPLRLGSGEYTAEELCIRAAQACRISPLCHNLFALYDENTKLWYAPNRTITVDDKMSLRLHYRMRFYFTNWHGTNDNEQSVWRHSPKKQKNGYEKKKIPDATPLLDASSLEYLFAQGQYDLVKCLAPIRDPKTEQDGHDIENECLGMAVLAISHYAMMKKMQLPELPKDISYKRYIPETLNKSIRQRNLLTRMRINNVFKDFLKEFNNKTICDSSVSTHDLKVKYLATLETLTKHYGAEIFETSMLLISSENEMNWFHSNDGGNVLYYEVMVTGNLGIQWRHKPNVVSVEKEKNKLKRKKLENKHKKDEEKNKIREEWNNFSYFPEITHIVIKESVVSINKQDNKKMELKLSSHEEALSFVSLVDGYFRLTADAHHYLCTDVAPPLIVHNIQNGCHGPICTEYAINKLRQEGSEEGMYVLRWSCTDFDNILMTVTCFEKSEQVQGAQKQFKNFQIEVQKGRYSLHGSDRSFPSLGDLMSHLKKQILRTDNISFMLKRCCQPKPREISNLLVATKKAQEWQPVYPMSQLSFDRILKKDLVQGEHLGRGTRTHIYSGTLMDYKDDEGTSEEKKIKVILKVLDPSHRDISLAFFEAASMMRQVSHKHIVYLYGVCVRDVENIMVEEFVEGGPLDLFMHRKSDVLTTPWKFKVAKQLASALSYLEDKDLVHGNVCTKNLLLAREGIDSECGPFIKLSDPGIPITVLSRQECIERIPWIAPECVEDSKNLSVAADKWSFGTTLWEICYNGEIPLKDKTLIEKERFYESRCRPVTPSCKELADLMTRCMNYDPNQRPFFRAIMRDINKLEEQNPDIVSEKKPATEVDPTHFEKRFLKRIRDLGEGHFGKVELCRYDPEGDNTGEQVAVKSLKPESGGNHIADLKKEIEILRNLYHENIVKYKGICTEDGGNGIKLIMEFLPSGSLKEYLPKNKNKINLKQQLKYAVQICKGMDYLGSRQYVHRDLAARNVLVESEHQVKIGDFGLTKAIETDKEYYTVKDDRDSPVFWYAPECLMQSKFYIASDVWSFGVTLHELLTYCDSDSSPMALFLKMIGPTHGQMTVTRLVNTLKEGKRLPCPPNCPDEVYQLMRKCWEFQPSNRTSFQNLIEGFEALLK
Sequence of Serine/threonine-protein kinase PAK 5 (Homo sapiens) (Q9P286 whole entry, looked up): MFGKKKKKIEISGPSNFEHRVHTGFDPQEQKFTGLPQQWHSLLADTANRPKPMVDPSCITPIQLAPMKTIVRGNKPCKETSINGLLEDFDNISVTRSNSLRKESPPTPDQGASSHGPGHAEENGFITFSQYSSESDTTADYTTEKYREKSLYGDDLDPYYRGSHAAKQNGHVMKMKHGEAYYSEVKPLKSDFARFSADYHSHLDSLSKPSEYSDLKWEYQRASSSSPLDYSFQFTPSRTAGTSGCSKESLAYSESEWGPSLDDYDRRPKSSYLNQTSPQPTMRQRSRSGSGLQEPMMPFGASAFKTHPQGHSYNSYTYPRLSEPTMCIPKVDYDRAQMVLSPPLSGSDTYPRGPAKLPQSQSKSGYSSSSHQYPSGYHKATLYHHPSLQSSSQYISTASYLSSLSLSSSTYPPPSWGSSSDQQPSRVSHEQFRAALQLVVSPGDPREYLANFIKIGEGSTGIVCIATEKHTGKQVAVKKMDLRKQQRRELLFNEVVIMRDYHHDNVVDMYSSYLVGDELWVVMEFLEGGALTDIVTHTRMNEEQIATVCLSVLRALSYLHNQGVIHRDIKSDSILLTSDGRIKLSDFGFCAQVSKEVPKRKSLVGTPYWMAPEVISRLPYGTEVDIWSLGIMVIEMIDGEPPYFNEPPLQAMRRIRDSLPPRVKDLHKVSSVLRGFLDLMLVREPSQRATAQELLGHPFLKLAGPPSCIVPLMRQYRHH
Sequence of Calcium/calmodulin-dependent protein kinase type II subunit alpha (Homo sapiens) (Q9UQM7 whole entry): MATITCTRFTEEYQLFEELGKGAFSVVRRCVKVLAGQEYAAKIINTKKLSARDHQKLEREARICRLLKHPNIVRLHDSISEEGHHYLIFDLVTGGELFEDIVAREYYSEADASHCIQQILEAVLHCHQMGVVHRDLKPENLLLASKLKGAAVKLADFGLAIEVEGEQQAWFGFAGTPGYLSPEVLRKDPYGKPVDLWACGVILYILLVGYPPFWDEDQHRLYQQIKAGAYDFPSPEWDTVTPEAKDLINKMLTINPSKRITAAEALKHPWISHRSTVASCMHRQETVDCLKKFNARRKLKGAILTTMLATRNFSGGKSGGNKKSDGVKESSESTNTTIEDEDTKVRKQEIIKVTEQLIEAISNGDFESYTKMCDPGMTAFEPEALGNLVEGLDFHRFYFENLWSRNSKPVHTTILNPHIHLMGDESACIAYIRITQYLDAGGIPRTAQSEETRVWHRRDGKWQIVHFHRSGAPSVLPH
Sequence of Serine/threonine-protein kinase D2 (Homo sapiens) (Q9BZL6 whole entry): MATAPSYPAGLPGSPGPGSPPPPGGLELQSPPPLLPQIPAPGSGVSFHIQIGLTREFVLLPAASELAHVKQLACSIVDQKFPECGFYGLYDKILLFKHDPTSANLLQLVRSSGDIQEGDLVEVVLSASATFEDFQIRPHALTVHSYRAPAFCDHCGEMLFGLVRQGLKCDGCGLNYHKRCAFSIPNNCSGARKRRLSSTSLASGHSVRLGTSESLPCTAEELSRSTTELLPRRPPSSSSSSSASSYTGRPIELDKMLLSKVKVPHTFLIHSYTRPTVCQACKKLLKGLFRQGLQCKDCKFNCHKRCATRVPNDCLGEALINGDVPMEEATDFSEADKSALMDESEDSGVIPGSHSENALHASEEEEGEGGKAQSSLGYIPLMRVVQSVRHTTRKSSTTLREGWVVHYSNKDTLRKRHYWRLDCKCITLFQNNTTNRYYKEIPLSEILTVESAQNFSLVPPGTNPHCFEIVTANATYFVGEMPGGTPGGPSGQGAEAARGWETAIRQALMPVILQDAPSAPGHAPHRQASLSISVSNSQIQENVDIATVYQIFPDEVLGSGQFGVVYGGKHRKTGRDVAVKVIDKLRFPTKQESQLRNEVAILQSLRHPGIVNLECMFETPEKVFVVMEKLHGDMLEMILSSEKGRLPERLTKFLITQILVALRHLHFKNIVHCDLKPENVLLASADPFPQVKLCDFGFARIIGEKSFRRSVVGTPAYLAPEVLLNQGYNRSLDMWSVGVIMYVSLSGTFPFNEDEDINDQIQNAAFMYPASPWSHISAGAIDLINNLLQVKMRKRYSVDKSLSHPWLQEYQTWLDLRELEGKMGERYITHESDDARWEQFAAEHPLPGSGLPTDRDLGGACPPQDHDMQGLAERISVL
Sequence of Mitogen-activated protein kinase kinase kinase 15 (Homo sapiens) (Q6ZN16 whole entry): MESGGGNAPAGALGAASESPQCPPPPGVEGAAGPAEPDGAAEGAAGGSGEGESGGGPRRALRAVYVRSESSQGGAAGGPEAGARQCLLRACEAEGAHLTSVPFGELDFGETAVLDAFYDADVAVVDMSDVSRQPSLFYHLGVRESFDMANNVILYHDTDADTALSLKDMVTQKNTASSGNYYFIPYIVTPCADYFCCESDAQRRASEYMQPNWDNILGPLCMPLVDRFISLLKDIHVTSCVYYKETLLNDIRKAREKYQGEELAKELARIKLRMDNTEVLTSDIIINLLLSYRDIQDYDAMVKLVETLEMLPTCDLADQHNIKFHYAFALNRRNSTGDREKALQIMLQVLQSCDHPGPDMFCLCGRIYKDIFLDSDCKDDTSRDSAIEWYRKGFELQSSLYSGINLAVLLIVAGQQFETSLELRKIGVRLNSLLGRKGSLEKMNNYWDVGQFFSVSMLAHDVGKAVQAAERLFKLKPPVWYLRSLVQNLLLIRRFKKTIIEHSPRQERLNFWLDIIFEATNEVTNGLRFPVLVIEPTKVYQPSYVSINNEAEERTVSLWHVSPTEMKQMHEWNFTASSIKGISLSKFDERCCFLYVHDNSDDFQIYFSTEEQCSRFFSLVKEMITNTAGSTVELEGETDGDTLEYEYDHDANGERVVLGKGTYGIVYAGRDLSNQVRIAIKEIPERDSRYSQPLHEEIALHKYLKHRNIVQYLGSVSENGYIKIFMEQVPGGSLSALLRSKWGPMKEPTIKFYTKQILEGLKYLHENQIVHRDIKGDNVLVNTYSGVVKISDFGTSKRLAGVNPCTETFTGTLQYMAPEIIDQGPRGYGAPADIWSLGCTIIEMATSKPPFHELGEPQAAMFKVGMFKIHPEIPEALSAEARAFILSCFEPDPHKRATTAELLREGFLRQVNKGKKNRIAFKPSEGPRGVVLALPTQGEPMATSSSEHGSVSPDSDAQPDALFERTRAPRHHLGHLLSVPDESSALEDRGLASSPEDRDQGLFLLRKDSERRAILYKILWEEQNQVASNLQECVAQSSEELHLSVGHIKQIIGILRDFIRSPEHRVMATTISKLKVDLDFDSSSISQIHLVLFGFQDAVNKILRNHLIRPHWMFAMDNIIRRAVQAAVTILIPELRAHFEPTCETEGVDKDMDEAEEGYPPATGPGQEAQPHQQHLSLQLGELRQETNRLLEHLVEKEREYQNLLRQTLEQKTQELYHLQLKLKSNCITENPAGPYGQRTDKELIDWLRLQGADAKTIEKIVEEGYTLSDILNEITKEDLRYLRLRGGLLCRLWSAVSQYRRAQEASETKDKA
Sequence of Mitogen-activated protein kinase 8 (Homo sapiens) (P45983 whole entry): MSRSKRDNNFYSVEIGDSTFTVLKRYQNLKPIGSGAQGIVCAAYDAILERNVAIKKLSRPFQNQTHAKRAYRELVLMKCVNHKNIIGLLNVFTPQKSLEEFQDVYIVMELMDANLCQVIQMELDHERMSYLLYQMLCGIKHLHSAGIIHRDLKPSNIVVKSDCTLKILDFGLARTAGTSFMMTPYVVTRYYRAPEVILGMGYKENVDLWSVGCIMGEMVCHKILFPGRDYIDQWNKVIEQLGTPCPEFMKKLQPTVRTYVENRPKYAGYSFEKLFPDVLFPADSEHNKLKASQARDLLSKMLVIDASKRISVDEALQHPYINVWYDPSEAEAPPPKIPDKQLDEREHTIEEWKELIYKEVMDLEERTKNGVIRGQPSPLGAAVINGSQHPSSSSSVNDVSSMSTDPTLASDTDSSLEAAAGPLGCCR

## C=CC(=O)Nc1cc(-n2c(=O)ccc3cnc4ccc(-c5ccc(NS(C)(=O)=O)cc5)cc4c32)ccc1C
[1]
  Activity: 92%
[2]
  Activity: 79%
[3]
  Activity: 92%
[4]
  Activity: 83%
[5]
  Activity: 98%
[6]
  GI50: 4.38 µM
[7]
  Activity: 74%
[8]
  Activity: 12%
[9]
  Activity: 92%
[10]
  Activity: 98%
[11]
  Activity: 94%
[12]
  Activity: 96%
[13]
  Activity: 72%
[14]
  Activity: 87%
[15]
  Activity: 99%
[16]
  Activity: 93%
[17]
  Activity: 92%
[18]
  Activity: 70%
[19]
  Activity: 75%
[20]
  Activity: 75%
[21]
  Activity: 87%
[22]
  Activity: 87%
[23]
  Activity: 77%
[24]
  Activity: 88%
[25]
  Activity: 56%
[26]
  Activity: 67%
[27]
  Activity: 56%
[28]
  Activity: Active
[29]
  Activity: Active
[30]
  Activity: Active
[31]
  Activity: 70.3%
[32]
  inhibition: inactive
